Patent US9724348B2, “Crystalline forms” (VM Therapeutics LLC, priority 2013, dated 2017)

Assays:
SNL rats = test: Spinal Nerve Ligation (SNL) mono-neuropathic pain model in rat, von Frey paw withdrawal threshold; assay type: in vivo; conditions: oral gavage, dose-dependent
Experimental: Spinal Nerve Ligation (SNL) Mono-Neuropathic Pain Model in Rat. The surgical procedure will be performed according to the method firstly described by Kim and Chung (Kim S H, Chung J M. Pain. 1992; 50(3):355-63.). This procedure will result in tactile allodynia in the left hindpaw. […] The dose-response anti-allodynia effects of test compound: on day 14 after surgery, rats were treated with test article at one of four doses, vehicle or positive control by oral gavage, and PWT was determined by calibrated von Frey filaments at time points of 0 (right before the drug dosing, Pre-Dose Baseline), 0.5, 1, 2, 4 and 6 hr. The anti-allodynia effects of repeated administration of test article: Administration of test article was started on day 7 after surgery, once a day for 7 days. PWT was determined by calibrated von Frey filaments, 2 hour after test article dosing each day. After 7 days dosing, the measurement were continued, every other day without compound dosing for another 7 days. PWT was determined at the time points as given above.

CCI rats = test: Chronic Constriction Injury (CCI) model of neuropathic pain in rat, von Frey paw withdrawal threshold; assay type: in vivo
Text: Chronic Constriction Injury (CCI) Model of Neuropathic Pain in Rat. The CCI model is one of the most commonly used mono-neuropathic pain model firstly described in details by Bennett and Xie (Bennett G J, Xie Y K. Pain. 1988; 33(1):87-107). It mimics important clinical chronic pain symptoms such as mechanical allodynia and thermal hyperalgesia. Chronic constriction injury of the sciatic nerve was produced by tying four loose ligatures around the left sciatic nerve according to the method of Bennett and Xie. […] Calibrated von Frey filaments were used to determine the lowest mechanical (tactile) threshold required to evoke a brisk paw withdrawal reflex in the rat hindpaws. Rats were allowed to acclimatize in wire mesh cages for 15-20 min prior to von Frey testing. Assessment of paw withdrawal thresholds (PWTs) using von Frey filaments was undertaken prior to CCI-surgery (pre-surgery baseline on day 0). Before the drug dosing on day 14, the pre-dose baseline was recorded for each rat. […] Drug-naïve CCI-rats (n=4-6 per group) were used. The oral (PO) gavage vehicle was either 10% (w/v) Povidone K25 in water for PO dosing, or 18% (w/v) CrosPovidone in water for PO dosing, or 0.5% CMC-Na/0.1% Tween 80 in distilled water for PO dosing. The positive control gabapentin was dissolved in the vehicle and orally given at 100 mg/kg (by oral gavage). Test article was dissolved or suspended in the vehicle and orally given at 25, 50, 100 and 150 mg/kg. Each CCI-rat was administered a single oral dose of test article, gabapentin or vehicle control, 2 hours before assessment of PWT.

[1] = tested on: rat CFA-induced inflammatory pain; test: Rat CFA-induced inflammatory pain model; assay type: in vivo; conditions: oral dose, FIG. 15
Experimental: Rat CFA-Induced Inflammatory Pain Model. Hyperalgesia was induced by subcutaneously injecting […] of CFA (Sigma-Aldrich, St. Louis, Mo., USA) into the plantar surface of the left hind paw of the rats using a 30-gauge hypodermic needle under sevoflurane anesthesia. The classical signs of inflammation, including edema and redness, for up the last day of tests were recorded. To assess the effect of test article on CFA-induced inflammatory pain, the rats were anesthetized with sevoflurane 3 hours after CFA injection and then orally dosed with test article (n=6) or vehicle (n=6) or positive control. Paw withdrawal latencies (thermal hyperalgesia) are measured before and at 2 and 4 hours after CFA injection. Mechanical thresholds were also measured in the same way with either the compound of current invention (n=6) or vehicle (n=6) or positive control, Naproxen (n=6) at similar different time points (for example, 1 and 3 hour). The noxious heat and mechanical thresholds were separately measured in each group of rats. The threshold was measured 3-5 times in each rat and then averaged. Stimulus interval was 5 min.

anxiety disorders = conditions: human clinical studies; cited from earlier work
[2] = Competitive slurries of polymorphic forms; assay type: physicochemical; conditions: competitive slurries in IPA, IPA and water, and acetone at ambient temperature and about 40° C.; all gave complete conversion to Form 2
Experimental: The DSC of Form 2 has a single endotherm at about 160° C. Competitive slurries in IPA, IPA and water, and acetone at ambient temperature and about 40° C., all results in complete conversion to Form 2.

[3] = Solid form conversion on drying or during DSC; assay type: physicochemical; conditions: drying at 80° C. or during a DSC experiment
Experimental: Also, Form 5 can be possibly isostructural with Form 2 or Form 2′, or the differences between these forms may relate to the presence or absence of a particular amount of surface water.
Form 5 may convert to a different form (Form 2′) which has a similar X-ray pattern to Form 2 on drying (80° C.), as shown in Table below and FIG. 11 (XRPD), FIG. 12 (^1H-NMR), and FIG. 13 (DSC).

Cc1nc2ccccn2c(=O)c1CCN1CCC(C(=O)c2ccc(F)cc2)CC1 [Compound 10, 3-(2-{4-[(4-fluorophenyl)carbonyl]piperidin-1-yl}ethyl)-2-methyl-4H-pyrido[1,2-a]pyrimidin-4-one]
mechanical allodynia (paw withdrawal threshold) (SNL rats): significantly reduced mechanical allodynia
potency relative to positive control gabapentin (CCI rats; CCI rats, oral, gabapentin 100 mg/kg): more than 100 time
mechanical allodynia (paw withdrawal threshold) (CCI rats; CCI rats, single oral dose 25, 50, 100 and 150 mg/kg, PWT 2 hours after dosing, dose-dependent, FIG. 14): significantly reduced mechanical allodynia
drowsiness, motor incoordination or other abnormality observed (CCI rats; rat, in vivo, po): no such effect or other abnormality was observed
analgesic effect compared with positive control Naproxen [1]: more efficacious than positive control Naproxen
anti-anxiety effects (anxiety disorders): did not show any dose-related anti-anxiety effects
safety in human (anxiety disorders): safe in human

Cc1nc2ccccn2c(=O)c1CCN1CCC(C(=O)c2ccc(F)cc2)CC1 [Form 2, 3-(2-{4-[(4-fluorophenyl)carbonyl]piperidin-1-yl}ethyl)-2-methyl-4H-pyrido[1,2-a]pyrimidin-4-one]
thermodynamic stability of crystalline form [2]: most thermodynamically stable form

Cc1nc2ccccn2c(=O)c1CCN1CCC(C(=O)c2ccc(F)cc2)CC1 [Form 5, 3-(2-{4-[(4-fluorophenyl)carbonyl]piperidin-1-yl}ethyl)-2-methyl-4H-pyrido[1,2-a]pyrimidin-4-one]
solid form stability on drying [3]: can convert to a Form 2′ on drying

NCC1(CC(=O)O)CCCCC1 [gabapentin, reference compound]
drowsiness, motor incoordination or other abnormality observed (CCI rats; CCI rats after single oral dose): drowsiness or motor incoordination
